This is an account of results in ChEMBL document CHEMBL3808273, “Steroids from the rhizome of Anemarrhena asphodeloides and their cytotoxic activities” (Bioorg Med Chem Lett, 2016).

The subject of one test is Bcap37. In words: Cytotoxicity against human Bcap37 cells assessed as growth inhibition after 48 hrs by MTT assay. The test is classed as functional, cell-based. Particulars: Bcap37, 48 h. (In general: Formazan colour is commonly taken as a measure of viable cells.)
Test [1] in a line: Cytotoxicity against human Hep3B cells assessed as growth inhibition after 48 hrs by MTT assay. The test is classed as functional, cell-based, Hep 3B2.
The next test deals with HepG2. In words: Cytotoxicity against human HepG2 cells assessed as growth inhibition after 48 hrs by MTT assay. Format: functional, cell-based. Particulars: HepG2, 48 h.
Another test relates to MCF7. Kind of test: Cytotoxicity against human MCF7 cells assessed as growth inhibition after 48 hrs by MTT assay. The note with it: MCF7, 48 h. Format: functional, cell-based.
The test system of the next test is A549. Kind of test: Cytotoxicity against human A549 cells assessed as growth inhibition after 48 hrs by MTT assay. The test is classed as functional, cell-based. The note with it: A549, 48 h.

On to `C[C@@H]1CC[C@]2(OC1)O[C@@H]1[C@@H](O)[C@@H]3[C@H]4CC[C@@H]5C[C@H](O[C@H]6O[C@@H](CO)[C@@H](O)[C@@H](O)[C@@H]6O[C@H]6O[C@@H](CO)[C@H](O)[C@@H](O)[C@@H]6O)CC[C@@]5(C)[C@@H]4CC[C@@]3(C)[C@@H]1[C@H]2C`, for which the IC50 (with Bcap37; in test [1]; with HepG2; in the test on MCF7; in the test on A549) was over 50 µM throughout.
With `C[C@H]1CC[C@@]2(OC1)O[C@H]1C[C@H]3[C@@H]4CC[C@H]5C[C@@H](O[C@@H]6O[C@H](CO)[C@H](O)[C@H](O)[C@H]6O[C@@H]6O[C@H](CO)[C@@H](O)[C@H](O)[C@H]6O)CC[C@]5(C)[C@H]4CC[C@]3(C)[C@H]1[C@@H]2C`, the 50% inhibitory concentration (IC50) amounted to 5.37 µM in the test on Bcap37; 0.35 µM in test [1]; 4.64 µM in the test on HepG2; 20.5 µM in the test on MCF7; 7.33 µM in the test on A549.
For `O=c1[nH]cc(F)c(=O)[nH]1` [FLUOROURACIL], the IC50 in the test on Bcap37 came out at 5.18 µM; in test [1], 23 µM.
For `C[C@H]1CC[C@@]2(OC1)O[C@H]1C[C@H]3[C@@H]4CC[C@H]5C[C@@H](O)CC[C@]5(C)[C@H]4CC[C@]3(C)[C@H]1[C@@H]2C`, the IC50 (with Bcap37; in test [1]; in the test on HepG2; in the test with MCF7; in the test with A549) was over 50 µM in each case.
Regarding `C=C1CC[C@@]2(OC1)O[C@H]1C[C@H]3[C@@H]4CC[C@H]5C[C@@H](O[C@@H]6O[C@H](CO)[C@H](O)[C@H](O)[C@H]6O[C@@H]6O[C@H](CO)[C@@H](O)[C@H](O)[C@H]6O)CC[C@]5(C)[C@H]4CC[C@]3(C)[C@H]1[C@@H]2C`, the 50% inhibitory concentration (IC50) in the test with Bcap37 was found to be 7.72 µM; in test [1], 9.98 µM; in the test with HepG2 it was 6.47 µM; with MCF7 it was 13.1 µM; with A549, 5.62 µM.
Consider `C[C@@H](CCC1(O)O[C@H]2C[C@H]3[C@@H]4CC[C@H]5C[C@@H](O)CC[C@]5(C)[C@H]4CC[C@]3(C)[C@H]2[C@@H]1C)CO[C@@H]1O[C@H](CO)[C@@H](O)[C@H](O)[C@H]1O` (some centres not stated), for which the half-inhibitory concentration (IC50) (in the test on Bcap37; in test [1]; in the test on HepG2; with MCF7; in the test with A549) was over 50 µM in each case.
As to `CC(=O)C1=C[C@H](O)[C@H]2[C@@H]3CC[C@H]4C[C@@H](O[C@@H]5O[C@H](CO)[C@H](O)[C@H](O)[C@H]5O[C@@H]5O[C@H](CO)[C@@H](O)[C@H](O)[C@H]5O)CC[C@]4(C)[C@H]3CC[C@]12C`, the IC50 (in the test on Bcap37; in test [1]; with HepG2; with MCF7; in the test on A549) was over 50 µM each time.
Turning to `C[C@@H]1CC[C@@]2(OC1)O[C@H]1C[C@H]3[C@@H]4CC[C@H]5C[C@@H](O[C@H]6O[C@@H](CO)[C@@H](O)[C@@H](O)[C@@H]6O[C@H]6O[C@@H](CO)[C@H](O)[C@@H](O)[C@@H]6O)[C@@H](O)C[C@]5(C)[C@H]4CC[C@]3(C)[C@H]1[C@@H]2C`, the concentration for half-maximal inhibition (IC50) (in the test with Bcap37; in test [1]; in the test with HepG2; in the test on MCF7; in the test on A549) was over 50 µM each time.
In the case of `C[C@H]1CC[C@@]2(OC1)O[C@H]1C[C@H]3[C@@H]4CC[C@H]5C[C@@H](OC6O[C@H](CO)[C@@H](O)[C@H](O)[C@@H]6O[C@@H]6O[C@H](CO)[C@@H](O)[C@H](O)[C@H]6O)CC[C@]5(C)[C@H]4CC[C@]3(C)[C@H]1[C@@H]2C` (some centres not stated), the IC50 turned out to be 9.5 µM with Bcap37; 13.8 µM in test [1]; 6.42 µM in the test on HepG2; 25.5 µM with MCF7; 8.42 µM in the test with A549.
On to `C[C@@H]1CO[C@]2(O[C@@H]3C[C@@H]4[C@H]5CC[C@@H]6C[C@H](O[C@H]7O[C@@H](CO)[C@@H](O)[C@@H](O)[C@@H]7O[C@H]7O[C@@H](CO)[C@H](O)[C@@H](O)[C@@H]7O)CC[C@@]6(C)[C@@H]5CC[C@@]4(C)[C@@H]3[C@H]2C)[C@H](O)C1`, for which the 50% inhibitory concentration (IC50) (with Bcap37; in test [1]; with HepG2; in the test on MCF7; in the test with A549) was over 50 µM throughout.
Take `C[C@@H]1C(=O)O[C@H]2C[C@H]3[C@@H]4CC[C@H]5C[C@@H](O)[C@@H](O)C[C@]5(C)[C@H]4CC[C@]3(C)[C@H]21`: the half-maximal inhibitory concentration (IC50) (in the test on Bcap37; in test [1]; in the test on HepG2; in the test on MCF7; in the test on A549) was over 50 µM each time.
Take `C[C@@H]1C(=O)O[C@H]2C[C@H]3[C@@H]4CC[C@H]5C[C@@H](O[C@@H]6O[C@H](CO)[C@H](O)[C@H](O)[C@H]6O[C@@H]6O[C@H](CO)[C@@H](O)[C@H](O)[C@H]6O)CC[C@]5(C)[C@H]4CC[C@]3(C)[C@H]21`: the 50% inhibitory concentration (IC50) (in the test on Bcap37; in test [1]; in the test on HepG2; in the test with MCF7; in the test on A549) was over 50 µM in each case.

One may read the IC50 as the concentration needed to halve the response being measured.
